From article PMC8294059, “Identification and Immune Assessment of T Cell Epitopes in Five Plasmodium falciparum Blood Stage Antigens to Facilitate Vaccine Candidate Selection and Optimization” (Frontiers in Immunology, 2021)
Where a SMILES comes first, the peptide text is derived from it.

Key:
Assay in all cases: biochemical
Assay type in all cases: binding
HLA-DRB1*1301 = HLA-DRB1*1301 (Homo sapiens, UniProt P01903+P01911, A100E/A169T/K41T/L162R/M171V/P40S/Q125H/Q178H/Q39Y/Q99D/R42S/S66N/T262R/W38E/Y61H); settings: binding inhibition assay; NB = non-binder (no dose-dependent inhibition); read-out: DRB1*1301 IC50
Experimental: (§1) The binding assay conducted by EpiVax yields an indirect measure of peptide-MHC affinity as it utilizes a competition assay format per the methodology described in Steere et al. ([35]). […] Post incubation, the mixtures are moved to a 96-well plate coated with anti-HLA-DR antibody to capture HLA-peptide complexes. Time-resolved fluorescence measurement of the bound labeled reference peptide complex present in each mixture is detected with a europium-linked probe via fluorescent spectrophotometry using a SpectraMax M5 system. HLA binding affinity of each test peptide is expressed as the percent inhibition of reference peptide binding. Percent inhibition values (across the test peptide titration range) are used to calculate the half maximal inhibitory concentration (IC50) of each test peptide. For these studies, test peptides were assessed using a range of final concentrations from 100,000 nM to 100 nM. The panel of commercially-available HLA-DRB1 allele monomers used includes: *0101, *0301, *0401, *0701, *0801, *1101, *1301 and *1501. EpiVax established HLA-DRB1 binding affinity cutoffs were used to rank the IC50 values.
(§2) In vitro HLA binding assays (step 2 of workflow shown in Figure 1 ) were carried out with the synthesized peptides to verify the EpiMatrix outputs and provide a measure of accuracy for comparing in silico-predicted HLA-DRB1 allele binding to laboratory assessments of HLA-DRB1 allele binding. These assessments were conducted using a competition assay format whereby IC50 values were calculated based on the ability of the test peptide to compete with a labeled, high binding affinity reference peptide for HLA-DRB1 molecule binding. Sequences for the high affinity reference peptides and the negative control peptide, known not to bind any of the HLA-DRB1 molecules, are provided in Table S18 .

HLA-DRB1*1101 = HLA-DRB1*1101 (Homo sapiens, UniProt P01903+P01911, A100R/A169T/A87E/I96F/K41T/L162R/M171V/P40S/Q125H/Q178H/Q39Y/Q99D/R42S/S66Y/T262R/V115G/W38E); settings: binding inhibition assay; NB = non-binder (no dose-dependent inhibition); read-out: DRB1*1101 IC50
Experimental: as §1, §2

HLA-DRB1*0701 = HLA-DRB1*0701 (Homo sapiens, UniProt P01903+P01911, A100R/A102G/A103Q/D57E/D86V/E43K/F76Y/K127E/L162R/M171V/P40G/Q125H/Q99D/R33Q/R42Y/R54Q/S133A/S66F/T210M/V115G/Y107V/Y59L/Y89S); settings: binding inhibition assay; NB = non-binder (no dose-dependent inhibition); read-out: DRB1*0701 IC50
Experimental: as §1, §2

HLA-DRB1*0801 = HLA-DRB1*0801 (Homo sapiens, UniProt P01903+P01911, A100R/A103L/A169T/D86S/F76Y/H45Y/I96F/K41T/L162R/M171V/P40S/Q125H/Q178H/Q39Y/Q99D/R218S/R42G/S66Y/V115G/W38E); settings: binding inhibition assay; NB = non-binder (no dose-dependent inhibition); read-out: DRB1*0801 IC50
Experimental: as §1, §2

HLA-DRB1*1501 = biological target: T1, HLA-DRB1*1501 (Homo sapiens, UniProt P01903+P01911); settings: binding inhibition assay; NB = non-binder (no dose-dependent inhibition); read-out: DRB1*1501 IC50
T1 construct: purchased
Experimental: as §1, §2

HLA-DRB1*0401 = biological target: T2, HLA-DRB1*0401 (Homo sapiens, UniProt P01903+P01911, A100K/A169T/F76Y/I96L/K127E/L162R/M171V/N62H/P40V/Q125Y/R42H/S133A/S149N/S66Y/V115G/V209L/W38E); settings: binding inhibition assay; NB = non-binder (no dose-dependent inhibition); read-out: DRB1*0401 IC50
T2 construct: purchased
Experimental: as §1, §2

HLA-DRB1*0101 = biological target: T3, HLA-DRB1*0101 (Homo sapiens, UniProt P01903+P01911, A100R/D57E/F55L/F60I/F76Y/I96L/L162R/M171V/P40L/Q125E/R42F/V115G/Y59C); settings: binding inhibition assay; NB = non-binder (no dose-dependent inhibition); read-out: DRB1*0101 IC50
T3 construct: purchased
Experimental: as §1, §2

HLA-DRB1*1101, sequence (P01903 26-254 limits assumed, other chains not shown): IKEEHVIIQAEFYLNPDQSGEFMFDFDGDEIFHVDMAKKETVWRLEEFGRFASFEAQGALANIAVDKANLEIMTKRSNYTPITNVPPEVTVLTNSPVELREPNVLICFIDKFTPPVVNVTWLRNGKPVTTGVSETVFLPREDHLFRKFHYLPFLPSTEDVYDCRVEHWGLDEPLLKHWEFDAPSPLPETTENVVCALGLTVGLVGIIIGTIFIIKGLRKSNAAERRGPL

| Compound | IC50 (HLA-DRB1*1301) [nM] | IC50 (HLA-DRB1*1101) [nM] | IC50 (HLA-DRB1*0701) [nM] | IC50 (HLA-DRB1*0801) [nM] | IC50 (HLA-DRB1*1501) [nM] | IC50 (HLA-DRB1*0401) [nM] | IC50 (HLA-DRB1*0101) [nM] |
| --- | --- | --- | --- | --- | --- | --- | --- |
| CSCC[C@H](N)C(=O)N[C@@H](CCCNC(=N)N)C(=O)N[C@@H](CCCCN)C(=O)N[C@@H](CC(C)C)C(=O)N[C@@H](Cc1ccc(O)cc1)C(=O)N[C@@H](CS)C(=O)N[C@H](C(=O)N[C@@H](CC(C)C)C(=O)N[C@@H](CC(C)C)C(=O)N[C@@H](CC(C)C)C(=O)N[C@@H](CO)C(=O)N[C@@H](C)C(=O)N[C@@H](Cc1ccccc1)C(=O)N[C@@H](CCC(=O)O)C(=O)N[C@@H](Cc1ccccc1)C(=O)N[C@H](C(=O)N[C@@H](Cc1ccc(O)cc1)C(N)=O)[C@@H](C)O)C(C)C [AMA1_001] (H-MRKLYCVLLLSAFEFTY-NH2) | 1790 | 320 | 206 | 17300 | 751 | 1470 | 394 |
| CC[C@H](C)[C@H](NC(=O)[C@H](CCSC)NC(=O)[C@H](Cc1ccc(O)cc1)NC(=O)[C@@H](NC(=O)[C@H](Cc1ccccc1)NC(=O)[C@H](CCC(=O)O)NC(=O)[C@H](Cc1ccccc1)NC(=O)[C@H](C)N)[C@@H](C)O)C(=O)N[C@@H](CC(N)=O)C(=O)N[C@@H](Cc1ccccc1)C(=O)NCC(=O)N[C@@H](CCCNC(=N)N)C(=O)NCC(=O)N[C@@H](CCC(N)=O)C(=O)N[C@@H](CC(N)=O)C(=O)N[C@@H](Cc1ccc(O)cc1)C(=O)N[C@@H](Cc1c[nH]c2ccccc12)C(=O)N[C@@H](CCC(=O)O)C(N)=O [AMA1_002] (H-AFEFTYMINFGRGQNYWE-NH2) | 723 | 236 | 113 | 239 | 76 | 45 | 117 |
| CC(=O)N[C@@H](Cc1ccccc1)C(=O)N[C@@H](CCC(N)=O)C(=O)N[C@@H](CC(N)=O)C(=O)N[C@@H](Cc1ccc(O)cc1)C(=O)N[C@H](C(=O)N[C@@H](Cc1ccc(O)cc1)C(=O)N[C@@H](CC(C)C)C(=O)N[C@@H](CO)C(=O)N[C@@H](CCCCN)C(=O)N[C@@H](CC(N)=O)C(=O)N[C@H](C(=O)N[C@H](C(=O)N[C@@H](CC(=O)O)C(=O)N[C@@H](CC(N)=O)C(=O)N[C@@H](Cc1c[nH]c2ccccc12)C(=O)N[C@@H](CCC(=O)O)C(N)=O)C(C)C)C(C)C)[C@@H](C)O [AMA1_004] (Ac-FQNYTYLSKNVVDNWE-NH2) | 70000 | 567 | 9480 | 10 | 248 | 9690 | 16 |
| CC[C@H](C)[C@H](NC(=O)[C@@H](NC(=O)[C@H](C)NC(=O)[C@H](CC(C)C)NC(C)=O)[C@@H](C)O)C(=O)N[C@@H](CC(C)C)C(=O)N[C@@H](CCSC)C(=O)N[C@H](C(=O)N[C@@H](Cc1ccc(O)cc1)C(=O)N[C@@H](CC(C)C)C(=O)N[C@@H](Cc1ccc(O)cc1)C(=O)N[C@@H](CCCCN)C(=O)N[C@@H](CCCNC(=N)N)C(=O)N[C@@H](CCCCN)C(=O)NCC(=O)N[C@@H](CC(N)=O)C(=O)N[C@@H](C)C(=O)N[C@@H](CCC(=O)O)C(=O)N[C@@H](CCCCN)C(=O)N[C@@H](Cc1ccc(O)cc1)C(=O)N[C@@H](CC(=O)O)C(=O)N[C@@H](CCCCN)C(N)=O)C(C)C [AMA1_009] (Ac-LATILMVYLYKRKGNAEKYDK-NH2) | 4400 | 165 | 3400 | 7980 | 2440 | 11100 | 10000 |
| CC[C@H](C)[C@H](NC(=O)[C@H](Cc1ccccc1)NC(=O)[C@H](CC(N)=O)NC(=O)[C@@H](NC(=O)[C@H](CC(N)=O)NC(=O)[C@H](CCCCN)NC(=O)[C@@H](NC(=O)[C@H](CC(N)=O)NC(=O)[C@H](CC(N)=O)NC(=O)[C@@H](NC(=O)[C@H](CC(N)=O)NC(=O)[C@H](CC(=O)O)NC(=O)CNC(=O)[C@@H](NC(=O)[C@H](Cc1ccc(O)cc1)NC(=O)[C@H](Cc1ccccc1)NC(=O)[C@@H](N)Cc1c[nH]cn1)C(C)C)[C@@H](C)CC)C(C)C)C(C)C)C(=O)N[C@@H](CCC(=O)O)C(N)=O [CYRPA_005] (H-HFYVGDNINNVKNVNFIE-NH2) | 633 | 293 | 137 | 11800 | 122 | 78 | 182 |
| CC[C@H](C)[C@H](NC(=O)[C@H](CCCCN)NC(=O)CNC(=O)[C@@H](NC(=O)[C@H](CC(C)C)NC(=O)[C@H](CCCCN)NC(=O)[C@H](CCCNC(=N)N)NC(=O)[C@H](CC(N)=O)NC(=O)[C@H](CO)NC(=O)[C@H](CC(C)C)NC(=O)[C@H](CC(=O)O)NC(=O)[C@H](CC(N)=O)NC(=O)[C@H](Cc1c[nH]c2ccccc12)NC(=O)[C@H](Cc1ccc(O)cc1)NC(=O)[C@H](CC(=O)O)NC(=O)[C@@H](NC(=O)CNC(C)=O)[C@@H](C)O)C(C)C)C(=O)N[C@@H](CC(N)=O)C(=O)N[C@H](C(=O)N[C@@H](CC(N)=O)C(N)=O)[C@@H](C)O [EBA175_011] (Ac-GTDYWNDLSNRKLVGKINTN-NH2) | > 100000 | 28600 |  | > 100000 | 54200 | 52700 | 462 |
| CC[C@H](C)[C@H](NC(=O)[C@H](CC(=O)O)NC(=O)[C@@H]1CCCN1C(=O)[C@H](CC(C)C)NC(=O)[C@@H](NC(=O)[C@H](CO)NC(=O)[C@H](CO)NC(=O)[C@H](CC(N)=O)NC(=O)[C@H](Cc1ccc(O)cc1)NC(=O)[C@H](CC(C)C)NC(=O)[C@H](CO)NC(=O)[C@@H]1CCCN1C(=O)[C@@H](NC(=O)[C@H](CC(N)=O)NC(=O)[C@H](CO)NC(=O)[C@H](Cc1c[nH]cn1)NC(=O)[C@H](CC(C)C)NC(=O)[C@H](Cc1c[nH]cn1)NC(=O)[C@H](CO)NC(=O)[C@H](CC(N)=O)NC(=O)[C@H](CCCCN)NC(C)=O)[C@@H](C)CC)[C@@H](C)CC)C(=O)N[C@@H](CC(N)=O)C(=O)N[C@@H](CCCCN)C(=O)N[C@@H](CO)C(N)=O [RIPR_008] (Ac-KNSHLHSNIPSLYNSSILPDINKS-NH2) |  | 92200 | 65700 | 9430 | 700 | 48500 | 400 |
| CC[C@H](C)[C@H](NC(=O)[C@H](CC(C)C)NC(=O)[C@H](Cc1c[nH]cn1)NC(=O)[C@H](Cc1ccccc1)NC(=O)[C@H](CCCCN)NC(=O)[C@H](CO)NC(=O)[C@H](CCCCN)NC(C)=O)C(=O)N[C@@H](CO)C(=O)N[C@@H](CCCNC(=N)N)C(=O)N[C@@H](CC(N)=O)C(=O)N[C@@H](CO)C(=O)N[C@@H](CCCNC(=N)N)C(=O)N[C@H](C(=O)N[C@@H](CC(N)=O)C(=O)N[C@@H](CCC(N)=O)C(=O)N[C@@H](Cc1ccc(O)cc1)C(N)=O)[C@@H](C)O [RIPR_009] (Ac-KSKFHLISRNSRTNQY-NH2) | 64 | 75 |  | 63400 | 15800 | 59100 | 441 |
